According to the kinase profiling compilation of Christmann-Franck et al. (2016):

What was measured:
Experiment in all cases: KINOMEscan competition binding
Settings in all cases: compound 10.0 µM; call rule not given here
ACVRL1 (human) = ACVRL1 (human) (UniProt P37023)
ALK (human) = ALK (human) (UniProt Q9UM73)
AURKB (human) = AURKB (human) (UniProt Q96GD4)
AXL (human) = AXL (human) (UniProt P30530)
BMX (human) = BMX (human) (UniProt P51813)
BRSK2 (human) = BRSK2 (human) (UniProt Q8IWQ3)
CDK16 (human) = CDK16 (human) (UniProt Q00536)
CSNK1A1L (human) = CSNK1A1L (human) (UniProt Q8N752)
DAPK2 (human) = DAPK2 (human) (UniProt Q9UIK4)
EPHA2 (human) = EPHA2 (human) (UniProt P29317)
EPHA3 (human) = EPHA3 (human) (UniProt P29320)
EPHA8 (human) = EPHA8 (human) (UniProt P29322)
EPHA8 (human), sequence (P29322 whole entry, looked up): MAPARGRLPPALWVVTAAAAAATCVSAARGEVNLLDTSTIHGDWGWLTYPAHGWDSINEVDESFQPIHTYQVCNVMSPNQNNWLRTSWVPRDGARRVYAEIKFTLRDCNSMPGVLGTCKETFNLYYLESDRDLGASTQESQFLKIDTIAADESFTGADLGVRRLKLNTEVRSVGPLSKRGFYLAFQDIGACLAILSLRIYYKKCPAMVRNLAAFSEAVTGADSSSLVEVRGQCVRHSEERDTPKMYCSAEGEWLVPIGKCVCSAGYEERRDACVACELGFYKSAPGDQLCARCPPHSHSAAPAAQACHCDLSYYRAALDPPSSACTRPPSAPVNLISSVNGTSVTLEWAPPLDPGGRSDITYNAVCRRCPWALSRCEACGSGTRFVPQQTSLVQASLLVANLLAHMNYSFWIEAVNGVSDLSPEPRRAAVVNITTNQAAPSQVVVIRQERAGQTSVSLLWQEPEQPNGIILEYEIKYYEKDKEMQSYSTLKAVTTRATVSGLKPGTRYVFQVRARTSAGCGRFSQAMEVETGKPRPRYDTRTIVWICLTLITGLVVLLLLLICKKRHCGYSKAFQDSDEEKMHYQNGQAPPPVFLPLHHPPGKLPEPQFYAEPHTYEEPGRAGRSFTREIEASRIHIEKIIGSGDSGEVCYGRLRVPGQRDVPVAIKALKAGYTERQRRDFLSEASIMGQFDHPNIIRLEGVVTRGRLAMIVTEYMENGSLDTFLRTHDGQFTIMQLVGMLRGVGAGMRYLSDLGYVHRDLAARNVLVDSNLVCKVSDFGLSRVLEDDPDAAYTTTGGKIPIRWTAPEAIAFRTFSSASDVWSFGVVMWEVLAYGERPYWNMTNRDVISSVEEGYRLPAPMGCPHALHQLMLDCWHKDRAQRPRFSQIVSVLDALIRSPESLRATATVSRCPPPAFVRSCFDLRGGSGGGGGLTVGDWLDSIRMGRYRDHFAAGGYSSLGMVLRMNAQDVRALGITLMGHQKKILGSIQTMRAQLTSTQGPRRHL

EPHB1 (human) = EPHB1 (human) (UniProt P54762)
FRK (human) = FRK (human) (UniProt P42685)
FYN (human) = FYN (human) (UniProt P06241)
FYN (human), sequence (P06241 whole entry, looked up): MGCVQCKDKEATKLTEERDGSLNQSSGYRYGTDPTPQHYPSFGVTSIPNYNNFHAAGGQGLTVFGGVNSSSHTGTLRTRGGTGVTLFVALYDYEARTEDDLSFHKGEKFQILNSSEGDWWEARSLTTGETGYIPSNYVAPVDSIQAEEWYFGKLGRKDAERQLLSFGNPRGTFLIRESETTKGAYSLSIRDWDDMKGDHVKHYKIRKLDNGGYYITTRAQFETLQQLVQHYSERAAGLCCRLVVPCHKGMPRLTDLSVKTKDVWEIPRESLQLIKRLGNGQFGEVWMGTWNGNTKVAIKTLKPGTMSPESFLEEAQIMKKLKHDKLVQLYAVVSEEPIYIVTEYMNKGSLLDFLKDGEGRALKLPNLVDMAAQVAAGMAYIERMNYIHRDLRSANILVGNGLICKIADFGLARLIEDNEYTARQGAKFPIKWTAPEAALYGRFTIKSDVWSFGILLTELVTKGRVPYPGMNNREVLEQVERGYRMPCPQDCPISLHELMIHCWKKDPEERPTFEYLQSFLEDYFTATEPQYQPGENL

LCK (human) = LCK (human) (UniProt P06239)
LCK (human), sequence (P06239 whole entry, looked up): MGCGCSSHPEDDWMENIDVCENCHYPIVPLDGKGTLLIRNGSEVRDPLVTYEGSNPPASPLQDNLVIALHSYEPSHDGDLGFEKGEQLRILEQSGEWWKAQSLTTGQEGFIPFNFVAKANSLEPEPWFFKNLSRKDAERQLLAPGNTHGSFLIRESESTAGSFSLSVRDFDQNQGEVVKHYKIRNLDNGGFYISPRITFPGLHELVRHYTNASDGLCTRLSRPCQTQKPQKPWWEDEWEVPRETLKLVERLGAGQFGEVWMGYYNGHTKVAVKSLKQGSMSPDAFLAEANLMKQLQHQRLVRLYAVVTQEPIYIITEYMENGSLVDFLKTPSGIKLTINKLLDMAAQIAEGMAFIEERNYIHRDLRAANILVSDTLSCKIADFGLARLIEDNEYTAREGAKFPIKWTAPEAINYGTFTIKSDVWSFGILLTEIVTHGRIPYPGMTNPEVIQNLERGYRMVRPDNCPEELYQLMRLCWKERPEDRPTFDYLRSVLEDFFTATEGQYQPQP

LYN (human) = LYN (human) (UniProt P07948)
MAPK8 (human) = MAPK8 (human) (UniProt P45983)
MERTK (human) = MERTK (human) (UniProt Q12866)
MET (human) = MET (human) (UniProt P08581)
PDGFRB (human) = PDGFRB (human) (UniProt P09619)
PDGFRB (human), sequence (P09619 whole entry, looked up): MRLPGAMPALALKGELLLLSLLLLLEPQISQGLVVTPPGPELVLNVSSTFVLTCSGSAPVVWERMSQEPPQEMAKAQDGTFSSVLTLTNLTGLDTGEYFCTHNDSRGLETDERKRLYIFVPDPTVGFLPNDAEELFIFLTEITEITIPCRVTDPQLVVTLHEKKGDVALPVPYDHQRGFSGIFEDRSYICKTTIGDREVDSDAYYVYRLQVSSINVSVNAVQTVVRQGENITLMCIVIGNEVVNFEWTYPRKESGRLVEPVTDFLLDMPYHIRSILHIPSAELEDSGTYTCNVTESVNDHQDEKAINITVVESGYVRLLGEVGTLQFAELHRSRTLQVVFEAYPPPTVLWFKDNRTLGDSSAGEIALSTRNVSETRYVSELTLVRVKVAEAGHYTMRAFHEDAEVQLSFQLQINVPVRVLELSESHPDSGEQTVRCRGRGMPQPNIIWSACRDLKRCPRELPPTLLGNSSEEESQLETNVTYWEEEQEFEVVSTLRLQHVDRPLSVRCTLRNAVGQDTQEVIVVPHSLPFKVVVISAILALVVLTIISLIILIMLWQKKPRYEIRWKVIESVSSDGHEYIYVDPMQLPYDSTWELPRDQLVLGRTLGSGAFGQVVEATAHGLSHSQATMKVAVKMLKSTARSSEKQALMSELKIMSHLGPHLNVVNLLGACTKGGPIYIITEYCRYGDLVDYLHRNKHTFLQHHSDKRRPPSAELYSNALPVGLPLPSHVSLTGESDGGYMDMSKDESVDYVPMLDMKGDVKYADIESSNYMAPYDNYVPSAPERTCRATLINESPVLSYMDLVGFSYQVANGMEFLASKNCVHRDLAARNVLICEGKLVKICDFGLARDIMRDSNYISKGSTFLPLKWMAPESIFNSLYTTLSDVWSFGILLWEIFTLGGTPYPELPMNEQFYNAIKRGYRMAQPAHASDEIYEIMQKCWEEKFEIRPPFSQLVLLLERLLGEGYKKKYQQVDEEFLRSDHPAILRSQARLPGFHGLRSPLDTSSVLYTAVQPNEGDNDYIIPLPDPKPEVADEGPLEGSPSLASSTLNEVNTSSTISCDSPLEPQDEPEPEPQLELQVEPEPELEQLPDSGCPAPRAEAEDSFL

PRKAA2 (human) = PRKAA2 (human) (UniProt P54646)
RAF1 (human) = RAF1 (human) (UniProt P04049)
RAF1 (human), sequence (P04049 whole entry, looked up): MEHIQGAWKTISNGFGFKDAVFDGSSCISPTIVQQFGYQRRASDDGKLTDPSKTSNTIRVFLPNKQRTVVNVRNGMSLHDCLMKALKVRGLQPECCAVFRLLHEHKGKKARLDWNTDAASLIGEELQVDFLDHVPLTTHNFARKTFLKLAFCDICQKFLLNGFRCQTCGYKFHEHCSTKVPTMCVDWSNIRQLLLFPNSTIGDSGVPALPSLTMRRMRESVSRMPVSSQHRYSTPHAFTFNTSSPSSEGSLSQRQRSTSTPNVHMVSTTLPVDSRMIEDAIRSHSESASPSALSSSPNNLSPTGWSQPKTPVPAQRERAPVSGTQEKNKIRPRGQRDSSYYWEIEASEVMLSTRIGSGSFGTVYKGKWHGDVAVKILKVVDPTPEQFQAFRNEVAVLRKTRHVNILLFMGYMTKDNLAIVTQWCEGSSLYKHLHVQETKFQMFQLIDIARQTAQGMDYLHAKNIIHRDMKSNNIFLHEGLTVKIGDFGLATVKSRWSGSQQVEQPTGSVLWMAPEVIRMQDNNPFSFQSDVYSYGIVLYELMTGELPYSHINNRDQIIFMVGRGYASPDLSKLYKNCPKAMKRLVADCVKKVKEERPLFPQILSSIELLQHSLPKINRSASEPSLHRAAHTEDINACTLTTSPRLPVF

RET (human) = RET (human) (UniProt P07949)
SRC (human) = SRC (human) (UniProt P12931)
SRC (human), sequence (P12931 whole entry, looked up): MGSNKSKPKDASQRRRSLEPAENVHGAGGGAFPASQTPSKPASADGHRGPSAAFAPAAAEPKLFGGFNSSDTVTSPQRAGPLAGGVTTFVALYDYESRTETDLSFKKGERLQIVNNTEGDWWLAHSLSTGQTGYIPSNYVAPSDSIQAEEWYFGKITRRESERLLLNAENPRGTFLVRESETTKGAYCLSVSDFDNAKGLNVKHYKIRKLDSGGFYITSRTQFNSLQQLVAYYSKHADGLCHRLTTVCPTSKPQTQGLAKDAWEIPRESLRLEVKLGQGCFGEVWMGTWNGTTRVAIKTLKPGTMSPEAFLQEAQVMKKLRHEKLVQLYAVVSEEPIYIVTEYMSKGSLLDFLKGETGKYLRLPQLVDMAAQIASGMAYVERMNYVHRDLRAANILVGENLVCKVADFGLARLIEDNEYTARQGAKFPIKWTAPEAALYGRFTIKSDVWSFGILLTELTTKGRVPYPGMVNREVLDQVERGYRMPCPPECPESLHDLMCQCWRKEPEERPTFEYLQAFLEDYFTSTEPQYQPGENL

SRPK1 (human) = SRPK1 (human) (UniProt Q96SB4)
STK24 (human) = STK24 (human) (UniProt Q9Y6E0)
SYK (human) = SYK (human) (UniProt P43405)
TEK (human) = TEK (human) (UniProt Q02763)
YES1 (human) = YES1 (human) (UniProt P07947)
CAMKK1 (human) = CAMKK1 (human) (UniProt Q8N5S9)
CSNK1D (human) = CSNK1D (human) (UniProt P48730)
CSNK1E (human) = CSNK1E (human) (UniProt P49674)
CSNK1G1 (human) = CSNK1G1 (human) (UniProt Q9HCP0)
DAPK3 (human) = DAPK3 (human) (UniProt O43293)
FLT3 (human) = FLT3 (human) (UniProt P36888)
KDR (human) = KDR (human) (UniProt P35968)
NLK (human) = NLK (human) (UniProt Q9UBE8)
STK3 (human) = STK3 (human) (UniProt Q13188)

BMX (human), sequence (P51813 whole entry, looked up): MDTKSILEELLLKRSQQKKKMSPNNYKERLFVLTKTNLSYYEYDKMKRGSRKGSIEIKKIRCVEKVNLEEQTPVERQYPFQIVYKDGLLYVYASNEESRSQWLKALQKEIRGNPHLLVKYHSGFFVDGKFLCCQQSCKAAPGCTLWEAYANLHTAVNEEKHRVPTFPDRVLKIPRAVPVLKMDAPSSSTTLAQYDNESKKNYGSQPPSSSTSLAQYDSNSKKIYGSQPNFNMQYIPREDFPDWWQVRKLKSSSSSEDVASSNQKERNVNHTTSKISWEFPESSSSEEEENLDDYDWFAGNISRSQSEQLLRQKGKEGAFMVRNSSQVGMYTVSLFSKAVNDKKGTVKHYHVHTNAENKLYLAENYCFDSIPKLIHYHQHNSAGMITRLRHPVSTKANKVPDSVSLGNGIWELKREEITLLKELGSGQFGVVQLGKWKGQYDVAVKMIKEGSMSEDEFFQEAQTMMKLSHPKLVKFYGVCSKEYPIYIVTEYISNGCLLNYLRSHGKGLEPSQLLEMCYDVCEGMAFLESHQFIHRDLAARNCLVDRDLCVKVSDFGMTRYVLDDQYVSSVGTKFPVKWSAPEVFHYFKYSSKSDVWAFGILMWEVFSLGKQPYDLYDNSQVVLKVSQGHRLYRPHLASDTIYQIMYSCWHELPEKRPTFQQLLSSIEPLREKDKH

kinase still bound, per cent of control (ACVRL1 (human))	kinase still bound, per cent of control (ALK (human))	kinase still bound, per cent of control (AURKB (human))	kinase still bound, per cent of control (AXL (human))	kinase still bound, per cent of control (BMX (human))	kinase still bound, per cent of control (BRSK2 (human))	kinase still bound, per cent of control (CDK16 (human)) [%]	kinase still bound, per cent of control (EPHA2 (human))	kinase still bound, per cent of control (EPHA3 (human))	kinase still bound, per cent of control (EPHA8 (human))	kinase still bound, per cent of control (FRK (human))	kinase still bound, per cent of control (FYN (human))	kinase still bound, per cent of control (LCK (human))	kinase still bound, per cent of control (LYN (human))	kinase still bound, per cent of control (PDGFRB (human))	kinase still bound, per cent of control (RAF1 (human))	kinase still bound, per cent of control (SRC (human))	kinase still bound, per cent of control (SYK (human))	kinase still bound, per cent of control (TEK (human))	kinase still bound, per cent of control (YES1 (human))	Structure (SMILES)	also measured
no effect (inactive)	no effect (inactive)	no effect (inactive)	no effect (inactive)	no effect (inactive)	no effect (inactive)	0	no effect (inactive)	no effect (inactive)	no effect (inactive)	no effect (inactive)	no effect (inactive)	no effect (inactive)	no effect (inactive)	0%	no effect (inactive)	no effect (inactive)	no effect (inactive)	no effect (inactive)	no effect (inactive)	NC(=O)c1ccc(Nc2cc(-c3ccc(F)cc3)[nH]n2)cc1	kinase still bound, per cent of control (CSNK1A1L (human)): no effect (inactive); kinase still bound, per cent of control (DAPK2 (human)): no effect (inactive); kinase still bound, per cent of control (EPHB1 (human)): no effect (inactive); kinase still bound, per cent of control (MAPK8 (human)): no effect (inactive); kinase still bound, per cent of control (MERTK (human)): no effect (inactive); kinase still bound, per cent of control (MET (human)): no effect (inactive); kinase still bound, per cent of control (PRKAA2 (human)): no effect (inactive); kinase still bound, per cent of control (RET (human)): no effect (inactive); kinase still bound, per cent of control (SRPK1 (human)): no effect (inactive); kinase still bound, per cent of control (STK24 (human)): no effect (inactive)
no effect (inactive)	no effect (inactive)	no effect (inactive)	no effect (inactive)	no effect (inactive)	no effect (inactive)	–	no effect (inactive)	no effect (inactive)	no effect (inactive)	no effect (inactive)	no effect (inactive)	no effect (inactive)	no effect (inactive)	no effect (inactive)	no effect (inactive)	no effect (inactive)	no effect (inactive)	no effect (inactive)	no effect (inactive)	CC(=O)c1c(-c2ccncc2)[nH]c(-c2ccncc2)c1C	kinase still bound, per cent of control (CAMKK1 (human)): no effect (inactive); kinase still bound, per cent of control (CSNK1A1L (human)): 0%; kinase still bound, per cent of control (CSNK1D (human)): 0%; kinase still bound, per cent of control (CSNK1E (human)): 0%; kinase still bound, per cent of control (CSNK1G1 (human)): 0%; kinase still bound, per cent of control (DAPK2 (human)): no effect (inactive); kinase still bound, per cent of control (DAPK3 (human)): no effect (inactive); kinase still bound, per cent of control (EPHB1 (human)): no effect (inactive); kinase still bound, per cent of control (FLT3 (human)): no effect (inactive); kinase still bound, per cent of control (KDR (human)): no effect (inactive); kinase still bound, per cent of control (MERTK (human)): no effect (inactive); kinase still bound, per cent of control (NLK (human)): no effect (inactive); kinase still bound, per cent of control (PRKAA2 (human)): no effect (inactive); kinase still bound, per cent of control (RET (human)): no effect (inactive); kinase still bound, per cent of control (SRPK1 (human)): no effect (inactive); kinase still bound, per cent of control (STK24 (human)): no effect (inactive); kinase still bound, per cent of control (STK3 (human)): no effect (inactive)
no effect (inactive)	–	–	–	no effect (inactive)	–	0	no effect (inactive)	no effect (inactive)	no effect (inactive)	no effect (inactive)	no effect (inactive)	no effect (inactive)	no effect (inactive)	0%	no effect (inactive)	no effect (inactive)	no effect (inactive)	no effect (inactive)	no effect (inactive)	O=C1Nc2ccccc2/C1=C/c1ccc[nH]1	kinase still bound, per cent of control (CSNK1D (human)): 0%; kinase still bound, per cent of control (CSNK1E (human)): 0%; kinase still bound, per cent of control (CSNK1G1 (human)): no effect (inactive); kinase still bound, per cent of control (KDR (human)): 0%; kinase still bound, per cent of control (NLK (human)): no effect (inactive); kinase still bound, per cent of control (STK3 (human)): 0%
